From PubChem BioAssay AID248 (DTP/NCI, 2004)
“And” between values parts separate entries of the source, which are not always exact repeats. Equal entries are not always repeated. Toxic doses and inconclusive results are not listed. No stated cut-off is given here; in the data, active means T/C of 150% or more; inactive means T/C below 125%.

Test system: L1210 leukemia ip in BDF1 mice, survival T/C
Assay: NCI In Vivo Anticancer Drug Screen. Data for tumor model L1210 Leukemia (intraperitoneal) in B6D2F1 (BDF1) mice
Conditions: endpoint: mean survival time, higher = longer survival
Summary of the method: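 In this screen, tumor-bearing mice given compound are compared to those given vehicle, and their survival values are reported as a treated-to-control quotient.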

[1] = dose: 100.0 mg/kg/injection, schedule: Q04DX002 (ip), vehicle: saline with Tween-80
[2] = dose: 200.0 mg/kg/injection, schedule: Q04DX002 (ip), vehicle: saline with Tween-80
[3] = dose: 400.0 mg/kg/injection, schedule: Q04DX002 (ip), vehicle: saline with Tween-80
[4] = dose: 50.0 mg/kg/injection, schedule: Q01DX001 (ip), vehicle: saline
[5] = dose: 100.0 mg/kg/injection, schedule: Q01DX001 (ip), vehicle: Klucel (hydroxypropylcellulose) (HPC)
[6] = dose: 100.0 mg/kg/injection, schedule: Q04DX003 (ip), vehicle: Klucel (hydroxypropylcellulose) (HPC)
[7] = dose: 200.0 mg/kg/injection, schedule: Q04DX003 (ip), vehicle: Klucel (hydroxypropylcellulose) (HPC)
[8] = dose: 400.0 mg/kg/injection, schedule: Q04DX003 (ip), vehicle: Klucel (hydroxypropylcellulose) (HPC)
[9] = dose: 100.0 mg/kg/injection, schedule: Q01DX001 (ip), vehicle: saline
[10] = dose: 200.0 mg/kg/injection, schedule: Q01DX001 (ip), vehicle: saline
[11] = dose: 400.0 mg/kg/injection, schedule: Q01DX001 (ip), vehicle: saline
[12] = dose: 100.0 mg/kg/injection, schedule: Q01DX009 (ip), vehicle: saline with Tween-80
[13] = dose: 200.0 mg/kg/injection, schedule: Q01DX009 (ip), vehicle: saline with Tween-80
[14] = dose: 400.0 mg/kg/injection, schedule: Q01DX009 (ip), vehicle: saline with Tween-80
[15] = dose: 100.0 mg/kg/injection, schedule: Q04DX002 (ip), vehicle: Klucel (hydroxypropylcellulose) (HPC)
[16] = dose: 200.0 mg/kg/injection, schedule: Q04DX002 (ip), vehicle: Klucel (hydroxypropylcellulose) (HPC)
[17] = dose: 400.0 mg/kg/injection, schedule: Q04DX002 (ip), vehicle: Klucel (hydroxypropylcellulose) (HPC)

Measured: T/C

CCOC(=O)n1[nH][nH]c2c(c(=O)n(C)c(=O)n2C)n1C(=O)OCC
inactive: dose: 75.0 mg/kg/injection, schedule: Q04DX003 (ip), vehicle: saline 95 % of control | dose: 150.0 mg/kg/injection, schedule: Q04DX003 (ip), vehicle: saline 95 % of control | dose: 300.0 mg/kg/injection, schedule: Q04DX003 (ip), vehicle: saline 94 % of control

NC(=O)N/N=C(/Cl)C(=O)NNC(N)=O
inactive: [1] 89 % of control | [2] 89 % of control | [3] 96 % of control

CCOC(CN=Cc1ccccn1)OCC
inactive: dose: 100.0 mg/kg/injection, schedule: Q04DX003 (ip), vehicle: saline 97 % of control | dose: 200.0 mg/kg/injection, schedule: Q04DX003 (ip), vehicle: saline 91 % of control | dose: 400.0 mg/kg/injection, schedule: Q04DX003 (ip), vehicle: saline 90 % of control

CC(Cl)CCN1CCCCC1 (centres undefined)
inactive: [4] 104 % of control

CC(C)(C)C(=O)[CH-]C(=O)C(C)(C)C.CC(C)(C)C(=O)[CH-]C(=O)C(C)(C)C.CC(C)(C)C(=O)[CH-]C(=O)C(C)(C)C.[Er+3]
inactive: dose: 50.0 mg/kg/injection, schedule: Q04DX002 (ip), vehicle: saline with Tween-80 90 % of control | [1] 90 % of control | [2] 90 % of control | [3] 90 % of control

N#Cc1c(F)c(F)c(Oc2c(F)c(F)c(Oc3c(F)c(F)c(C#N)c(F)c3F)c(F)c2F)c(F)c1F
inactive: [5] 97 % of control | [6] 94 % of control | dose: 200.0 mg/kg/injection, schedule: Q01DX001 (ip), vehicle: Klucel (hydroxypropylcellulose) (HPC) 97 % of control | [7] 94 % of control | dose: 400.0 mg/kg/injection, schedule: Q01DX001 (ip), vehicle: Klucel (hydroxypropylcellulose) (HPC) 89 % of control | [8] 92 % of control

COc1cc(/C=N/NC(=O)CC(C)O)ccc1O (centres undefined)
inactive: [9] 104 % of control | [10] 102 % of control | [11] 104 % of control

CCOP(=O)(OCC)c1ccccc1Br
inactive: dose: 100.0 mg/kg/injection, schedule: Q01DX001 (ip), vehicle: acetone 89 % of control | dose: 200.0 mg/kg/injection, schedule: Q01DX001 (ip), vehicle: acetone 87 % of control | dose: 400.0 mg/kg/injection, schedule: Q01DX001 (ip), vehicle: acetone 89 % of control

O=[N+]([O-])c1ccc(-c2ccccc2)c([As](=O)(O)O)c1
inactive: dose: 25.0 mg/kg/injection, schedule: Q04DX002 (ip), vehicle: saline with Tween-80 106 % of control

CC(=O)CC(=O)CC(C)C
inactive: [4] 105 % of control | [9] 103 % of control | [10] 100 % of control | [11] 94 % of control

CCOP(=O)(NCCc1ccccc1)OCC
inactive: dose: 50.0 mg/kg/injection, schedule: Q01DX001 (ip), vehicle: carboxymethylcellulose (CMC) 109 % of control | dose: 100.0 mg/kg/injection, schedule: Q01DX001 (ip), vehicle: carboxymethylcellulose (CMC) 109 % of control | dose: 200.0 mg/kg/injection, schedule: Q01DX001 (ip), vehicle: carboxymethylcellulose (CMC) 101 % of control

CC1=CC2(C)CCC(=O)C(Cc3c(CCCC4(C)OCCO4)noc3C)=C2CC1 (centres undefined)
inactive: [6] 95 % of control | [7] 95 % of control | [8] 91 % of control

NC1=NC(c2ccccc2)C2=C(N1)C(=O)N(c1ccc(Br)cc1)C2 (centres undefined)
inactive: dose: 18.75 mg/kg/injection, schedule: Q01DX009 (ip), vehicle: saline 88 % of control | dose: 37.5 mg/kg/injection, schedule: Q01DX009 (ip), vehicle: saline 86 % of control | dose: 75.0 mg/kg/injection, schedule: Q01DX001 (ip), vehicle: saline 93 % of control | dose: 75.0 mg/kg/injection, schedule: Q01DX009 (ip), vehicle: saline 91 % of control | dose: 150.0 mg/kg/injection, schedule: Q01DX001 (ip), vehicle: saline 90 % of control | dose: 300.0 mg/kg/injection, schedule: Q01DX001 (ip), vehicle: saline 95 % of control

COc1ccccc1N=Cc1ccccc1O.[Co]
inactive: dose: 100.0 mg/kg/injection, schedule: Q01DX001 (ip), vehicle: other 94 % of control | dose: 200.0 mg/kg/injection, schedule: Q01DX001 (ip), vehicle: other 94 % of control | dose: 400.0 mg/kg/injection, schedule: Q01DX001 (ip), vehicle: other 93 % of control

O=C(O)NC1(c2ccccc2)OC1c1ccccc1 (centres undefined)
inactive: dose: 50.0 mg/kg/injection, schedule: Q01DX001 (ip), vehicle: saline with Tween-80 115 % of control | dose: 100.0 mg/kg/injection, schedule: Q01DX001 (ip), vehicle: saline with Tween-80 98 % of control | dose: 200.0 mg/kg/injection, schedule: Q01DX001 (ip), vehicle: saline with Tween-80 94 % of control

Cc1ccc([N+](=O)[O-])cc1NC(=O)NCc1ccc(Cl)cc1
inactive: [12] 87 % of control | [13] 106 % of control | [14] 95 % of control

O=C(O)CCCC[Se][Se]CCCCC(=O)O
inactive: dose: 25.0 mg/kg/injection, schedule: Q01DX001 (ip), vehicle: Klucel (hydroxypropylcellulose) (HPC) 102 % of control | dose: 50.0 mg/kg/injection, schedule: Q01DX001 (ip), vehicle: Klucel (hydroxypropylcellulose) (HPC) 96 % of control | [5] 99 % of control

Clc1cccc(Nc2nc(Cl)nc(C(Cl)(Cl)Cl)c2Cl)c1
inactive: [12] 88 % of control | [13] 94 % of control | [14] 88 % of control

CC(=O)Nc1ccc(/C=C2N=C(/C=C/c3ccccc3)OC\2=O)cc1
inactive: [15] 94 % of control | [16] 105 % of control | [17] 90 % of control

CCCCCCCCCCCCCCCCCCNC(=S)OC
inactive: [15] 91 % of control | [16] 97 % of control | [17] 102 % of control

O=C(Nc1ccc(Br)cc1)Nc1cccc(Cl)c1
inactive: dose: 100.0 mg/kg/injection, schedule: Q04DX002 (ip), vehicle: saline 103 % of control | dose: 200.0 mg/kg/injection, schedule: Q04DX002 (ip), vehicle: saline 103 % of control | dose: 400.0 mg/kg/injection, schedule: Q04DX002 (ip), vehicle: saline 96 % of control

C=C(Cl)CSC1=NCCS1
inactive: dose: 100.0 mg/kg/injection, schedule: Q04DX002 (sc), vehicle: olive oil, sesame oil, peanut oil 90 % of control | dose: 200.0 mg/kg/injection, schedule: Q04DX002 (sc), vehicle: olive oil, sesame oil, peanut oil 100 % of control | dose: 400.0 mg/kg/injection, schedule: Q04DX002 (sc), vehicle: olive oil, sesame oil, peanut oil 100 % of control

CN(CCCl)CC1C(c2ccccc2)C1c1ccccc1 (centres undefined)
inactive: dose: 25.0 mg/kg/injection, schedule: Q04DX002 (ip), vehicle: Klucel (hydroxypropylcellulose) (HPC) 103 % of control | dose: 50.0 mg/kg/injection, schedule: Q04DX002 (ip), vehicle: Klucel (hydroxypropylcellulose) (HPC) 111 % of control | [15] 107 % of control and 111 % of control

Cc1noc2nc(Cl)cnc12
inactive: [12] 109 % of control | dose: 100.0 mg/kg/injection, schedule: Q04DX003 (ip), vehicle: saline with Tween-80 94 % of control | [13] 110 % of control | dose: 200.0 mg/kg/injection, schedule: Q04DX003 (ip), vehicle: saline with Tween-80 102 % of control | [14] 104 % of control | dose: 400.0 mg/kg/injection, schedule: Q04DX003 (ip), vehicle: saline with Tween-80 94 % of control
